Measured values: US9315602B2, “Method for producing olefin polymer” (Mitsui Chemicals, Inc., priority 2012, dated 2016)

What was measured:
[1] = Solubility of bridged metallocene compound in n-hexane at 25° C.; settings: nitrogen atmosphere, 10 mg of catalyst
[2] = Propylene polymerization with catalyst solution (polymerization activity)
Method: An autoclave made of SUS and having an inner volume of 15 mL was thoroughly purged with nitrogen, and 0.4 mL (0.05 M, 20 μmol) of triisobutylaluminum and 2.7 mL of a solvent which served as a polymerization solvent and in which cyclohexane and hexane had been mixed with each other at a mixing ratio of cyclohexane:hexane=9:1 (volume ratio) were put into the autoclave. The content was stirred at 600-times rotation per minute. […]
Under a nitrogen atmosphere, 2.5 mg (molecular weight: 835.07 g/mol) of the catalyst (a) which served as a bridged metallocene compound was put into a Schlenk flask and dissolved in 5.5 mL of hexane. Then, 0.36 mL of a suspension of modified methylaluminoxane (n-hexane solvent, 4.15 M and 1.49 mmol on an aluminum atom basis) was added thereto at room temperature under stirring to prepare a catalyst solution in which the concentration of the catalyst (a) was 0.00051 M.
The catalyst solution was held at room temperature under a nitrogen atmosphere for 30 minutes, 0.2 mL (0.00051 M, 0.10 μmol) of the catalyst solution and 0.7 mL of a solvent which served as a polymerization solvent and in which cyclohexane and hexane had been mixed with each other at a mixing ratio of cyclohexane:hexane=9:1 (volume ratio) were subsequently put into the autoclave, and then the temperature was increased to 65° C. to initiate polymerization. […]

Compound | solubility determined from the amount of n-hexane necessary for the dissolution [1] | polymerization activity ([2]; Example 1: propylene 7 bar, 9 minutes, catalyst solution 0.00051 M held 30 minutes, modified methylaluminoxane) | polymerization activity ([2]; Comparative Example 1: propylene 7 bar, 10 minutes, supernatant catalyst solution held 30 minutes, assuming catalyst concentration 0.00050 M)
CC(C)(C)c1cc2c3cc(C(C)(C)C)c(-c4ccccc4)cc3[c-](C(Cc3ccccc3)(Cc3ccccc3)[c-]3cccc3)c2cc1-c1ccccc1.[Cl-].[Cl-].[Zr+4] [catalyst (h), Dibenzylmethylene(cyclopentadienyl)(2,7-diphenyl-3,6-di-tert-butylfluorenyl)zirconium Dichloride, reference compound] | not more than 0.278 mmol/L | – | –
Benzyl(p-chlorophenyl)methylene(cyclopentadienyl)(2,7-di-p-chlorophenyl-3,6-di-tert-butylfluorenyl)zirconium Dichloride [catalyst (d)] | 901 µM | – | –
Benzyl(p-chlorophenyl)methylene(cyclopentadienyl)(2,7-diphenyl-3,6-di-tert-butylfluorenyl)zirconium Dichloride [catalyst (c)] | 1585 µM | – | –
Benzyl(phenyl)methylene(cyclopentadienyl)(2,7-di-p-chlorophenyl-3,6-di tert-butylfluorenyl)zirconium Dichloride [catalyst (b)] | 4098 µM | – | –
Benzyl(phenyl)methylene(cyclopentadienyl)(2,7-diphenyl-3,6-di-tert-butylfluorenyl)zirconium Dichloride [catalyst (a)] | 1005 µM | 39.90 kg-PP/mmol-Zr·hr | –
Diphenylmethylene(cyclopentadienyl)(2,7-diphenyl-3,6-di-tert-butylfluorenyl)zirconium Dichloride [catalyst (g), reference compound] | not more than 0.211 mmol/L | – | 3.00 kg-PP/mmol-Zr·hr
Methyl(p-tolyl)methylene(cyclopentadienyl)(2,7-diphenyl-3,6-di-tert-butylfluorenyl)zirconium Dichloride [catalyst (e)] | 6221 µM | – | –
n-octyl(phenyl)methylene(cyclopentadienyl)(2,7-diphenyl-3,6-di-tert-butylfluorenyl)zirconium Dichloride [catalyst (f)] | 7683 µM | – | –
